Source: patent publication US10759754B2, “Aminobenzoic acid derivatives for use as anti-inflammatory agents, anti-metastatic agents and/or anticancer agents” (3R VALO, S.E.C., priority 2016, dated 2020)
“Also recorded” adds a separate entry of the source.

Assays:
MDA-MB-241 cells = test: 3D spheroid-based tumor invasion assay; format: cell-based, human; conditions: 30 μM, day 4 vs day 0
Description: Cellular analysis of 3D spheroid-based tumor invasion assays. Cell preparation and spheroid formation were performed following the manufacturer instructions (Corning). Briefly, MDA-MB-231 cells were harvested and diluted to a concentration of 5×10^4 cells/mL in (complete) culture media supplemented with 10% serum. 100 μL of cell suspension was then pipetted to appropriate 96 well spheroid formation plate and placed at 37° C./5% CO2. Spheroid formation was monitored every 24 hours. The typical cell aggregation period was 48 hours. Upon spheroid formation completion, 70 μL of complete medium was removed from each well, and replaced by 70 μL of serum-free medium. This was repeated on a daily basis to create a serum starvation period of 48 hours. Matrigel matrix (100 μL) was then added to each well. The plate was centrifuged at 300×g for 5 minutes in a swinging bucket centrifuge. The plate was then transferred to a 37° C./5% CO2 incubator for one hour to initiate gel formation. Following the 1-hour gel formation incubation period, DMSO or compound 4 was added to appropriate wells during 60 minutes. After pretreatment, the media was removed and replaced by complete culture media, and then the media was changed every day for a period of 4 days. […] These protrusions were identified, and their area and perimeter properly quantified using the ImageJ software (National Institutes of Health).

MB49 tumors = test: Ectopic UBC model, non-muscle invasive MB49 tumors in male mice; format: in vivo; conditions: i.p. 90 and 150 μM
Description: Ectopic UBC model. Male C57BL/6J mice (6-8 weeks old), each weighing 15-18 g, were used for the experiments (supplied by Charles River). The mice were housed with free access to food and water on a 12:12 h light:dark cycle with the room temperature maintained at 21° C. MB49 cells, MB49-I cells, and iNOS-deficient MB49-I cells ([…] in 100 μL PBS) were injected subcutaneously (s.c.) into the right flank of the mice. Growth rates of the s.c. tumors were monitored. The size of tumors was determined every 3 days for 24-28 days using a digital caliper and by measuring luciferin luminescence at days 15 and 25 using the IVIS imaging system. A blinded observer measured tumor length and width. The volume of the tumor was calculated from the formula: Length×width2×0.52, where length and width were tumor diameters measured with calipers in mutually perpendicular directions. At a tumor size of approximately 10 mm^3 the mice were divided into different groups. A control group received PBS as treatment. As indicated, other groups were treated at different doses (90, 150 or 300 μM) with an intraperitoneal (i.p.) injection of compounds 4 or 8 every 3-4 days for 18-20 days.^24,27

With CC(C)(C)OC(=O)NNC(=O)c1ccc(N2C(=O)C=CC2=O)cc1 [Compound 4, N′-[4-(2,5-dioxo-2,5-dihydro-pyrrol-1-yl)-benzoyl]-hydrazine carboxylic acid tert-butyl ester] the “invasiveness activity in 3D spheroid-based tumor invasion assay” value (MDA-MB-241 cells) was “anti-invasion properties; also recorded: efficiently inhibited” and the “size of subcutaneously implanted MB49 tumors” value (MB49 tumors) was “significant reduction; also recorded: significantly reduce”.
